Where “and” joins values, the source holds several entries; their conditions need not be identical. Equal values may be shown once. Read-outs that look alike come from different tables or passages of the source.
Key:
[1] = test system: NCI-H660 prostate xenograft tumors; assay: NCI-H660 prostate xenograft tumor model, tumor growth inhibition; type: in vivo, mice; settings: NCI-H660 CDX model
Method: (§1) Procedure: The experimental details of the studies, including tumor model, mouse strain, cell number implanted, vehicle used, days of treatment, treatment details, and average tumor size at start of dosing are outlined in Table 1. All study mice were purchased from Beijing Anikeeper Biotech and Matrigel was utilized as a basement membrane for all xenograft models. All xenografts were engrafted subcutaneously in the right flank region. The vehicles and Compound 1 (3 mg/kg) were administered twice weekly (BIW) intraperitoneally and enzalutamide (30 mg/kg) was administered orally once daily (QD), when applicable. Tumor volumes and body weights were measured over the course of study, and doses were adjusted by body weight to achieve the proper dose in terms of mg/kg.

[2] = test system: 22Rv1 prostate xenograft tumors; assay: 22Rv1 prostate xenograft tumor model, tumor growth inhibition; type: in vivo, mice
Method: as §1

[3] = Plasma concentration of Compound 1 in DU145 PK/PD cohort; type: in vivo; settings: for concentration at 72 h: BALA/c nude (sic, BALB/c nude); for concentration at 72 h / concentration at 4 h: mouse, plasma, intraperitoneal; for concentration at 4 h: BALB/c nude
Method: Procedure: The experimental details of the studies, including tumor model, mouse strain, cell number implanted, vehicle used, days of treatment, treatment details, and average tumor size at start of dosing are outlined in Table 3. All study mice were obtained and the studies were conducted at Pharmaron. Each mouse was inoculated subcutaneously on the right flank with the single cell suspension of DU145 human prostate cancer tumor cells (5×10^6) in 0.1 mL with Matrigel (1:1) in MEM with 10% FBS for tumor development.
Based on tumor volume, mice were randomly assigned to respective groups using a computer-generated randomization procedure. The study groups and the number of animals per group are shown in Table 4A (efficacy study) and Table 4B (PKPD study).
Treatment for the PKPD cohort was initiated when the mean tumor volume reached 281 mm^3 on Day 14 post tumor cell inoculation. Animals were randomized into 5 groups: 1) Vehicle Control, 3 doses intraperitoneally (IP); 2) Compound 1 at 1 mg/kg, single dose IP; 3) Compound 1 at 15 mg/kg, single dose IP; 4) Compound 1 at 1 mg/kg, 3 doses IP; and 5) Compound 1 at 15 mg/kg, 3 doses IP.
In the case of an animal reaching a tumor size exceeding 2000 mm^3, the entire group was terminated. Plasma and tumor samples were collected at 4 hours and 72 hours post last dose for all groups. For the PKPD Cohort, the tumors were cut into 2 pieces: one for Western Blotting (WB) with BRD9 analysis, and one for RNAseq analysis. For the Efficacy Cohort, the tumors were analyzed for BRD9 levels by Western Blotting (WB).

Compound: COc1cc(-c2cn(C)c(=O)c3cnc(N4CCC4)cc23)cc(OC)c1CN1CCC(CN2CCC3(CC2)CN(c2ccc4c(c2)C(=O)N(C2CCC(=O)NC2=O)C4)C3)CC1 (stereo not drawn) [Compound 1, 3-(6-(7-((1-(4-(6-(azetidin-1-yl)-2-methyl-1-oxo-1,2-dihydro-2,7-naphthyridin-4-yl)-2,6-dimethoxybenzyl)piperidin-4-yl)methyl)-2,7-diazaspiro[3.5]nonan-2-yl)-1-oxoisoindolin-2-yl) piperidine-2,6-dione]
- TGI with Compound 1 3 mg/kg ([1]; AR−, 3 mg/kg BIW IP): 56.9%
- TGI ([1]; Compound 1 3 mg/kg BIW IP): 56.9%
- TGI with Compound 1 3 mg/kg ([2]; 22RV1 CDX model, AR V7+, 3 mg/kg BIW IP): 73.2%
- tumor growth inhibition, in words ([2]; 22RV1 xenograft, Compound 1 3 mg/kg BIW IP, enzalutamide 30 mg/kg QD oral): modest tumor growth inhibition which was less than the TGI provided by enzalutamide treatment
- TGI ([2]; 22Rv1 CDX model, Compound 1 3 mg/kg BIW IP, enzalutamide 30 mg/kg QD oral): 73.2%
- Plasma Concentration of Compound 1 (individual mice) ([3]; 1 mg/kg BIW 3 doses IP, 4 hours post last dose, group 4): 10.9 ng/mL and 14.4 ng/mL and 6.89 ng/mL
- Plasma Concentration of Compound 1 (individual mice) ([3]; 1 mg/kg BIW 3 doses IP, 72 hours post last dose, group 4): 2.75 ng/mL and 1.85 ng/mL
- difference in PK between a single dose or three doses ([3]; 1 mg/kg IP): No difference in PK
- Plasma Concentration of Compound 1 (individual mice) ([3]; 1 mg/kg single dose IP, 4 hours post last dose, group 2): 18.0 ng/mL and 9.37 ng/mL and 8.07 ng/mL
- Plasma Concentration of Compound 1 (individual mice) ([3]; 1 mg/kg single dose IP, 72 hours post last dose, group 2, BLOQ = below quantifiable limit of 1.05 ng/mL): 1.59 ng/mL and BLOQ*
- Plasma Concentration of Compound 1 (individual mice) ([3]; 15 mg/kg BIW 3 doses IP, 4 hours post last dose, group 5): 63.4 ng/mL and 71.3 ng/mL
- Plasma Concentration of Compound 1 (individual mice) ([3]; 15 mg/kg BIW 3 doses IP, 72 hours post last dose, group 5): 10.5 ng/mL and 6.77 ng/mL
- PK exposure, single dose vs three doses ([3]; 15 mg/kg IP): 15 mg/kg (single dose) group had better PK exposure than the 15 mg/kg (three doses) group
- Plasma Concentration of Compound 1 (individual mice) ([3]; 15 mg/kg single dose IP, 4 hours post last dose, group 3): 132 ng/mL and 92.3 ng/mL
- Plasma Concentration of Compound 1 (individual mice) ([3]; 15 mg/kg single dose IP, 72 hours post last dose, group 3): 15.7 ng/mL and 50.2 ng/mL and 28.6 ng/mL
- concentration at 72 h ([3]; 1 mg/kg, 1 mg/kg BIW 3 doses IP, 72 hours post last dose, group 4, read-out: Plasma Concentration of Compound 1 (individual mice)): 2.02 ng/mL
- concentration at 72 h ([3]; 1 mg/kg, 1 mg/kg BIW 3 doses IP, 72 hours post last dose, group 4, read-out: Plasma Concentration of Compound 1, Mean): 2.21 ng/mL
- concentration at 72 h ([3]; 1 mg/kg, 1 mg/kg single dose IP, 72 hours post last dose, group 2, BLOQ = below quantifiable limit of 1.05 ng/mL, read-out: Plasma Concentration of Compound 1 (individual mice)): 1.18 ng/mL
- concentration at 72 h ([3]; 1 mg/kg, 1 mg/kg single dose IP, 72 hours post last dose, group 2, read-out: Plasma Concentration of Compound 1, Mean): 1.39 ng/mL
- concentration at 72 h ([3]; 15 mg/kg, 15 mg/kg BIW 3 doses IP, 72 hours post last dose, group 5, read-out: Plasma Concentration of Compound 1 (individual mice)): 6.43 ng/mL
- concentration at 72 h ([3]; 15 mg/kg, 15 mg/kg BIW 3 doses IP, 72 hours post last dose, group 5, read-out: Plasma Concentration of Compound 1, Mean): 7.9 ng/mL
- concentration at 72 h ([3]; 15 mg/kg, 15 mg/kg single dose IP, 72 hours post last dose, group 3, read-out: Plasma Concentration of Compound 1, Mean): 31.5 ng/mL
- concentration at 4 h ([3]; 1 mg/kg, 1 mg/kg BIW 3 doses IP, 4 hours post last dose, group 4, read-out: Plasma Concentration of Compound 1, Mean): 10.8 ng/mL
- concentration at 4 h ([3]; 1 mg/kg, 1 mg/kg single dose IP, 4 hours post last dose, group 2, read-out: Plasma Concentration of Compound 1, Mean): 11.8 ng/mL
- concentration at 4 h ([3]; 15 mg/kg, 15 mg/kg BIW 3 doses IP, 4 hours post last dose, group 5, read-out: Plasma Concentration of Compound 1 (individual mice)): 82.9 ng/mL
- concentration at 4 h ([3]; 15 mg/kg, 15 mg/kg BIW 3 doses IP, 4 hours post last dose, group 5, read-out: Plasma Concentration of Compound 1, Mean): 72.5 ng/mL
- concentration at 4 h ([3]; 15 mg/kg, 15 mg/kg single dose IP, 4 hours post last dose, group 3, read-out: Plasma Concentration of Compound 1 (individual mice)): 147 ng/mL
- concentration at 4 h ([3]; 15 mg/kg, 15 mg/kg single dose IP, 4 hours post last dose, group 3, read-out: Plasma Concentration of Compound 1, Mean): 124 ng/mL
- exposures in plasma, in words ([3]; DU145 PK/PD cohort, 1 and 15 mg/kg IP, 4 h and 72 h post last dose): time and dose dependent exposures
- exposure difference between a single dose and three doses ([3]; at each dose level (1 and 15 mg/kg IP)): no obvious exposure difference

— patent publication US20250255857A1, “METHODS OF TREATING ANDROGEN RECEPTOR-INDEPENDENT PROSTATE CANCER” (FOGHORN THERAPEUTICS INC., priority 2022, published 2025)
